Read-outs that look alike come from different tables or passages of the source.
Key:
SMARCA2 = SMARCA2 (Homo sapiens, UniProt P51531); test: HiBiT assay for protein degradation, Hela SMARCA2-HiBiT cells (A series); assay type: cell-based; parameters: Hela cells were genetically modified via CRISPR/Cas9 to fuse HiBiT to the carboxy terminus of SMARCA2; host or cells: HeLa (CRISPR/Cas9 HiBiT knock-in)
Method in brief: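 HeLa cells engineered by CRISPR/Cas9 to carry a HiBiT tag fused to the C-terminus of SMARCA2 (Promega CS302365) were grown in DMEM supplemented with FBS and penicillin-streptomycin. After treatment, remaining SMARCA2 protein was quantified with the Nano-Glo® HiBiT Lytic Detection Assay (Promega N3050), and curves were fitted in GraphPad Prism.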

SMARCA4 = SMARCA4 (Homo sapiens, UniProt P51532); test: HiBiT assay for protein degradation, Hela SMARCA4-HiBiT cells (A series); assay type: cell-based; parameters: fuse HiBiT to the carboxy terminus of SMARCA2 (Promega CS302365) or SMARCA4 (Promega CS3023225); host or cells: HeLa (CRISPR/Cas9 HiBiT knock-in); conditions: for DC50: read-out: SMARC A4 Hela HiBit DC50; for Dmax: read-out: SMARC A4 Hela HiBit Dmax(%)
SMARCA4, sequence (P51532 whole entry, the tested form may be a part): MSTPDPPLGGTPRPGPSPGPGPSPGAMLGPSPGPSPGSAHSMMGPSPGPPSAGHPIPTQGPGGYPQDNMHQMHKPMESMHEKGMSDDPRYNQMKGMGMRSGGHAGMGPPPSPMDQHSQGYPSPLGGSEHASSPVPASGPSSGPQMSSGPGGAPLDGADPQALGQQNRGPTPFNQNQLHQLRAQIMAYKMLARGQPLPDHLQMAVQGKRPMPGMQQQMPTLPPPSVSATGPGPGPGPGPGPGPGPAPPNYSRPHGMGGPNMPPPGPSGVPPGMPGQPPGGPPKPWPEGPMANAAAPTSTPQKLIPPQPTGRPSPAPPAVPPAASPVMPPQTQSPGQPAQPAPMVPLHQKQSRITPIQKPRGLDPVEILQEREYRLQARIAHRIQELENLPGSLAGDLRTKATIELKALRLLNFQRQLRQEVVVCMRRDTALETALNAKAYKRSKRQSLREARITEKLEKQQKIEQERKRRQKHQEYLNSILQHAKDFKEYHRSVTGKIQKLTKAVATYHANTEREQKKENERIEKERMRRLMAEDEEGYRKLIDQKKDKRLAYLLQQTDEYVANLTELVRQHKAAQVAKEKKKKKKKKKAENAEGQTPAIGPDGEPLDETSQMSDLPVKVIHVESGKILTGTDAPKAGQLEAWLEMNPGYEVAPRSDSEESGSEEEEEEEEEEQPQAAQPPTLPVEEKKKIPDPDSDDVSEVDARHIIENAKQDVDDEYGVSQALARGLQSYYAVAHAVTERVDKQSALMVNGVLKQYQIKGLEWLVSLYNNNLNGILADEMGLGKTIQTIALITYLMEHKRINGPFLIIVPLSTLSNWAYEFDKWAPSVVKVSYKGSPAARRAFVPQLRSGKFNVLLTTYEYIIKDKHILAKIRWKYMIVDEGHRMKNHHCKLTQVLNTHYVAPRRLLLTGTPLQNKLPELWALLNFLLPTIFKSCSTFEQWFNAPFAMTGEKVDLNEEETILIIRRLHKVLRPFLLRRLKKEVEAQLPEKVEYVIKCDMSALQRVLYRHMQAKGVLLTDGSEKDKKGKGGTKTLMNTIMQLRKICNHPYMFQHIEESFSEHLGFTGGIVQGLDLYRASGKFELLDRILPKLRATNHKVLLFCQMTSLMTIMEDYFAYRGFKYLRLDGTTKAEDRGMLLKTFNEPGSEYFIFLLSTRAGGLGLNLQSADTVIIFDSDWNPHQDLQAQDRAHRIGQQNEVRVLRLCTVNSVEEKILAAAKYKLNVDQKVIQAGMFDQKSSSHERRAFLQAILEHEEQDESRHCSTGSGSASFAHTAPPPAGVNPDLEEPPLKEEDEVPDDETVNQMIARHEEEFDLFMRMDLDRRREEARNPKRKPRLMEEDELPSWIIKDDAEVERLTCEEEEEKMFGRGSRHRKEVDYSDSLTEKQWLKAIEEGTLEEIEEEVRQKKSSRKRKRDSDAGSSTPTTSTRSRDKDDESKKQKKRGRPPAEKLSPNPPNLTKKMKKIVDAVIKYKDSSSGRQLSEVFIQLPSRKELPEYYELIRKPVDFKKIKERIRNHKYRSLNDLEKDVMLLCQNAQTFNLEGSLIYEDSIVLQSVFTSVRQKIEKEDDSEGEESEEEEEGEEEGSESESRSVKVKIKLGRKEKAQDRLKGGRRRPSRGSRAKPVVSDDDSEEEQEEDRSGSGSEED
Method in brief: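 HeLa cells engineered by CRISPR/Cas9 to carry a HiBiT tag fused to the C-terminus of SMARCA4 (Promega CS3023225) were grown in DMEM supplemented with FBS and penicillin-streptomycin. After compound exposure, remaining SMARCA4 protein was quantified using the Nano-Glo® HiBiT Lytic Detection Assay (Promega N3050), and curves were fitted in GraphPad Prism.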

[1] = Hela SMARCA2-HiBiT cells, 24 hours treatment
[2] = read-out: SMARC A2 Hela HiBit DC50
[3] = Hela SMARCA4-HiBiT cells, 24 hours treatment
[4] = Hela SMARCA2-HiBiT cells, 24 hours treatment; read-out: SMARC A2 Hela HiBit DC50
[5] = HeLa, read-out: SMARC A2 Hela HiBit Dmax (%)
[6] = Hela SMARCA2-HiBiT cells, 24 hours treatment; read-out: SMARC A2 Hela HiBit Dmax (%)

SMARCA2, sequence (P51531 whole entry, the tested form may be a part): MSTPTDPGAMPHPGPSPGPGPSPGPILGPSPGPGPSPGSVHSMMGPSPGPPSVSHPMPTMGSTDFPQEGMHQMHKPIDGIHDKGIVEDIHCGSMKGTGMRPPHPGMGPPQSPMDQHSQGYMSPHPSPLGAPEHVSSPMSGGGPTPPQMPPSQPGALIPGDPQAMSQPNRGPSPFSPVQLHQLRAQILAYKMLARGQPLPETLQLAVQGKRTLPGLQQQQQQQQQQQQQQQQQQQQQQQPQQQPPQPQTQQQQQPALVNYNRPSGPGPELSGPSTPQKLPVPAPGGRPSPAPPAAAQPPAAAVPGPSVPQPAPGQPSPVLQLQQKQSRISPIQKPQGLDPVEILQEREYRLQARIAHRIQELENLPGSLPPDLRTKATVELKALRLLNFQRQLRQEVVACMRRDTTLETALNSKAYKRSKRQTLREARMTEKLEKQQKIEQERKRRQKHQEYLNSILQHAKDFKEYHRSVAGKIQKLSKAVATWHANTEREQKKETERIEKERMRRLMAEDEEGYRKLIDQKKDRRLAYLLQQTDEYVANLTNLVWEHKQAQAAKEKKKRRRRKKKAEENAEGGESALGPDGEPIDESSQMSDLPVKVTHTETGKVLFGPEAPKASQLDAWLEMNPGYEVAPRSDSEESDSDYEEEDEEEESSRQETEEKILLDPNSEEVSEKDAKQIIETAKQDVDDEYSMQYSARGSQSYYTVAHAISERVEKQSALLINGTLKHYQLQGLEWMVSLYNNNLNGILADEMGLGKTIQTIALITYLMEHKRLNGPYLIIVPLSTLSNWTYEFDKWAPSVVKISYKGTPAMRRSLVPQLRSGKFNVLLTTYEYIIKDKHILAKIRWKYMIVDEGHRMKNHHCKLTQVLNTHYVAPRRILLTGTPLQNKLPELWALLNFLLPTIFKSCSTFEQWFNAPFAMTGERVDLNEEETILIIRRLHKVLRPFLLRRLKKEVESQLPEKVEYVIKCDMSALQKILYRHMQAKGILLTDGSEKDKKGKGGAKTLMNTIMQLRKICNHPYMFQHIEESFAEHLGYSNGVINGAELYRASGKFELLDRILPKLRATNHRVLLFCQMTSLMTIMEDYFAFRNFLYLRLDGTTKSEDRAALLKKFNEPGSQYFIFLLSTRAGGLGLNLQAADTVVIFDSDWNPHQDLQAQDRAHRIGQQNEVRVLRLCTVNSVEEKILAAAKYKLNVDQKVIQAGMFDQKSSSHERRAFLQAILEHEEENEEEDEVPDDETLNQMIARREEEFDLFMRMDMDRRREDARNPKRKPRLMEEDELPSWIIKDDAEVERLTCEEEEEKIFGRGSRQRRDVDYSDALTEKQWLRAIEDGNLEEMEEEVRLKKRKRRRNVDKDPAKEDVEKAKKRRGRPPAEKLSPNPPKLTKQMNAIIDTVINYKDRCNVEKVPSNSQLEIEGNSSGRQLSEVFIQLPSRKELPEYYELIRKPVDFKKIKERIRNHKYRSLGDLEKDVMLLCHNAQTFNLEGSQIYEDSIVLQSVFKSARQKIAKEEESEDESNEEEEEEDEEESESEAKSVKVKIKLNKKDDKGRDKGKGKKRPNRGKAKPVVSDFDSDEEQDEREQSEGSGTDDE

| Compound | SMARC A2 Hela HiBit Dmax (%) (SMARCA2; [1]) | DC50 (SMARCA2; [2]) | SMARC A4 Hela HiBit Dmax(%) (SMARCA4; [3]) | DC50 (SMARCA4) | DC50 (SMARCA2; [4]) | DC50 (SMARCA4; [3]) | Dmax (SMARCA2; [6]) | Dmax (SMARCA4; [3]) | also measured |
| --- | --- | --- | --- | --- | --- | --- | --- | --- | --- |
| Cc1ncsc1-c1ccc([C@H](C)NC(=O)[C@@H]2C[C@@H](O)CN2C(=O)[C@@H](n2cc(CCCCN3CCC(c4ccc5c(c4)-n4c(nc(=O)c6c(Br)cccc64)C54CCCCC4)CC3)nn2)C(C)(C)C)cc1 [Compound A45, (2S,4R)-1-((S)-2-(4-(4-(4-(4′-bromo-5′-oxo-5′H-spiro[cyclohexane-1,7′-indolo[1,2-a]quinazolin]-10′-yl)piperidin-1-yl)butyl)-1H-1,2,3-triazol-1-yl)-3,3-dimethylbutanoyl)-4-hydroxy-N—((S)-1-(4-(4-methylthiazol-5-yl)phenyl)ethyl)pyrrolidine-2-carboxamide] | A (A (>90% degradation)) | < 100 nM | B (B (70-90% degradation)) | < 100 nM | – | – | – | – | – |
| Cc1ncsc1-c1ccc([C@H](C)NC(=O)[C@@H]2C[C@@H](O)CN2C(=O)[C@@H](n2cc(CCCCCN3CCC(c4ccc5c(c4)-n4c(nc(=O)c6c(Br)cccc64)C54CCCCC4)CC3)nn2)C(C)(C)C)cc1 [Compound A46, (2S,4R)-1-((S)-2-(4-(5-(4-(4′-bromo-5′-oxo-5′H-spiro[cyclohexane-1,7′-indolo[1,2-a]quinazolin]-10′-yl)piperidin-1-yl)pentyl)-1H-1,2,3-triazol-1-yl)-3,3-dimethylbutanoyl)-4-hydroxy-N—((S)-1-(4-(4-methylthiazol-5-yl)phenyl)ethyl)pyrrolidine-2-carboxamide] | A (A (>90% degradation)) | < 100 nM | B (B (70-90% degradation)) | < 100 nM | – | – | – | – | – |
| Cc1ncsc1-c1ccc([C@H](C)NC(=O)[C@@H]2C[C@@H](O)CN2C(=O)[C@@H](n2cc(CCCCCCN3CCC(c4ccc5c(c4)-n4c(nc(=O)c6c(Br)cccc64)C54CCCCC4)CC3)nn2)C(C)(C)C)cc1 [Compound A47, (2S,4R)-1-((S)-2-(4-(6-(4-(4′-bromo-5′-oxo-5′H-spiro[cyclohexane-1,7′-indolo[1,2-a]quinazolin]-10′-yl)piperidin-1-yl)hexyl)-1H-1,2,3-triazol-1-yl)-3,3-dimethylbutanoyl)-4-hydroxy-N—((S)-1-(4-(4-methylthiazol-5-yl)phenyl)ethyl)pyrrolidine-2-carboxamide] | A (A (>90% degradation)) | < 100 nM | A (A (>90% degradation)) | < 100 nM | – | – | – | – | – |
| Cc1ncsc1-c1ccc([C@H](C)NC(=O)[C@@H]2C[C@@H](O)CN2C(=O)[C@@H](n2cc(CCN3CCC(c4ccc5c(c4)-n4c(nc(=O)c6c(Br)cccc64)C54CCCCC4)CC3)nn2)C(C)(C)C)cc1 [Compound A48, (2S,4R)-1-((S)-2-(4-(2-(4-(4′-bromo-5′-oxo-5′H-spiro[cyclohexane-1,7′-indolo[1,2-a]quinazolin]-10′-yl)piperidin-1-yl)ethyl)-1H-1,2,3-triazol-1-yl)-3,3-dimethylbutanoyl)-4-hydroxy-N—((S)-1-(4-(4-methylthiazol-5-yl)phenyl)ethyl)pyrrolidine-2-carboxamide] | A (A (>90% degradation)) | < 100 nM | C (C (50-69% degradation)) | 100 to 500 nM | – | – | – | – | – |
| Cc1ncsc1-c1ccc([C@H](C)NC(=O)[C@@H]2C[C@@H](O)CN2C(=O)[C@@H](n2cc([C@H]3CC[C@H](CN4CCC(c5ccc6c(c5)-n5c(nc(=O)c7c(Br)cccc75)C65CCCCC5)CC4)CC3)nn2)C(C)(C)C)cc1 [Compound A49, (2S,4R)-1-((S)-2-(4-((1r,4S)-4-((4-(4′-bromo-5′-oxo-5′H-spiro[cyclohexane-1,7′-indolo[1,2-a]quinazolin]-10′-yl)piperidin-1-yl)methyl)cyclohexyl)-1H-1,2,3-triazol-1-yl)-3,3-dimethylbutanoyl)-4-hydroxy-N—((S)-1-(4-(4-methylthiazol-5-yl)phenyl)ethyl)pyrrolidine-2-carboxamide] | A (A (>90% degradation)) | – | B (B (70-90% degradation)) | – | < 100 nM | 100 to 500 nM | – | – | – |
| Cc1ncsc1-c1ccc([C@H](C)NC(=O)[C@@H]2C[C@@H](O)CN2C(=O)[C@@H](n2cc([C@H]3CC[C@H](CN4CCC(c5ccc6c(n5)-n5c(nc(=O)c7c(Br)cccc75)C65CCCCC5)CC4)CC3)nn2)C(C)(C)C)cc1 [Compound A50, (2S,4R)-1-((S)-2-(4-((1r,4S)-4-((4-(4′-bromo-5′-oxo-5′H-spiro[cyclohexane-1,7′-pyrido[3′,2′: 4,5]pyrrolo[1,2-a]quinazolin]-10′-yl)piperidin-1-yl)methyl)cyclohexyl)-1H-1,2,3-triazol-1-yl)-3,3-dimethylbutanoyl)-4-hydroxy-N—((S)-1-(4-(4-methylthiazol-5-yl)phenyl)ethyl)pyrrolidine-2-carboxamide] | – | – | – | – | < 100 nM | – | – | – | Dmax (SMARCA2; [5]): > 90%; SMARC A4 Hela HiBit DC50(nM) (SMARCA4; [3]): No Fit |
| Cc1ncsc1-c1ccc([C@H](C)NC(=O)[C@@H]2C[C@@H](O)CN2C(=O)[C@@H](NC(=O)[C@H]2CC[C@H](CN3CCC(c4ccc5c(n4)-n4c(nc(=O)c6c(Br)cccc64)C54CCCCC4)CC3)CC2)C(C)(C)C)cc1 [Compound A51, (2S,4R)-1-((S)-2-((1r,4S)-4-((4-(4′-bromo-5′-oxo-5′H-spiro[cyclohexane-1,7′-pyrido[3′,2′: 4,5]pyrrolo[1,2-a]quinazolin]-10′-yl)piperidin-1-yl)methyl)cyclohexane-1-carboxamido)-3,3-dimethylbutanoyl)-4-hydroxy-N—((S)-1-(4-(4-methylthiazol-5-yl)phenyl)ethyl)pyrrolidine-2-carboxamide] | – | – | – | – | – | – | – | – | Dmax (SMARCA2; [5]): 50 to 69%; DC50 (SMARCA2; read-out: SMARC A2 Hela HiBit DC50; Hela SMARCA2-HiBiT cells, 24 hours treatment): 501 to 1000 nM; Dmax (SMARCA4; HeLa): < 50%; SMARC A4 Hela HiBit DC50(nM) (SMARCA4; [3]): No Fit |
| Cc1ncsc1-c1ccc([C@H](C)NC(=O)[C@@H]2C[C@@H](O)CN2C(=O)[C@@H](n2cc(CN3CCC(c4ccc5c(c4)C4(CCCCC4)c4nc(=O)c6c(Br)cccc6n4-5)CC3)nn2)C(C)(C)C)cc1 [Compound A53, (2S,4R)-1-((S)-2-(4-((4-(4′-bromo-5′-oxo-5′H-spiro[cyclohexane-1,7′-indolo[1,2-a]quinazolin]-9′-yl)piperidin-1-yl)methyl)-1H-1,2,3-triazol-1-yl)-3,3-dimethylbutanoyl)-4-hydroxy-N—((S)-1-(4-(4-methylthiazol-5-yl)phenyl)ethyl)pyrrolidine-2-carboxamide] | – | – | – | – | < 100 nM | < 100 nM | > 90% | > 90% | – |
| Cc1ncsc1-c1ccc([C@H](C)NC(=O)[C@@H]2C[C@@H](O)CN2C(=O)[C@@H](n2cc(CCN3CCC(c4ccc5c(c4)C4(CCCCC4)c4nc(=O)c6c(Br)cccc6n4-5)CC3)nn2)C(C)(C)C)cc1 [Compound A54, (2S,4R)-1-((S)-2-(4-(2-(4-(4′-bromo-5′-oxo-5′H-spiro[cyclohexane-1,7′-indolo[1,2-a]quinazolin]-9′-yl)piperidin-1-yl)ethyl)-1H-1,2,3-triazol-1-yl)-3,3-dimethylbutanoyl)-4-hydroxy-N—((S)-1-(4-(4-methylthiazol-5-yl)phenyl)ethyl)pyrrolidine-2-carboxamide] | – | – | – | – | < 100 nM | < 100 nM | > 90% | > 90% | – |
| Cc1ncsc1-c1ccc([C@H](C)NC(=O)[C@@H]2C[C@@H](O)CN2C(=O)[C@@H](n2cc(CCCN3CCC(c4ccc5c(c4)C4(CCCCC4)c4nc(=O)c6c(Br)cccc6n4-5)CC3)nn2)C(C)(C)C)cc1 [Compound A55, (2S,4R)-1-((S)-2-(4-(3-(4-(4′-bromo-5′-oxo-5′H-spiro[cyclohexane-1,7′-indolo[1,2-a]quinazolin]-9′-yl)piperidin-1-yl)propyl)-1H-1,2,3-triazol-1-yl)-3,3-dimethylbutanoyl)-4-hydroxy-N—((S)-1-(4-(4-methylthiazol-5-yl)phenyl)ethyl)pyrrolidine-2-carboxamide] | – | – | – | – | < 100 nM | < 100 nM | > 90% | > 90% | – |
| Cc1ncsc1-c1ccc([C@H](C)NC(=O)[C@@H]2C[C@@H](O)CN2C(=O)[C@@H](n2cc(CCCCN3CCC(c4ccc5c(c4)C4(CCCCC4)c4nc(=O)c6c(Br)cccc6n4-5)CC3)nn2)C(C)(C)C)cc1 [Compound A56, (2S,4R)-1-((S)-2-(4-(4-(4-(4′-bromo-5′-oxo-5′H-spiro[cyclohexane-1,7′-indolo[1,2-a]quinazolin]-9′-yl)piperidin-1-yl)butyl)-1H-1,2,3-triazol-1-yl)-3,3-dimethylbutanoyl)-4-hydroxy-N—((S)-1-(4-(4-methylthiazol-5-yl)phenyl)ethyl)pyrrolidine-2-carboxamide] | – | – | – | – | < 100 nM | < 100 nM | > 90% | > 90% | – |
